These results are taken from patent US7429660B2, “ATM inhibitors” (Kudos Pharmaceuticals Limited, priority 2003, dated 2008).

Bounds are passed on as bounds.

The experiment deals with T1, ATM protein immunoprecipitated from HeLa cell nuclear extract (Homo sapiens, UniProt Q13315).
T1 construct: ATM protein was immunoprecipitated from HeLa cell nuclear extract; endogenous in cells; host or cells: HeLa cell nuclear extract (immunoprecipitated with rabbit polyclonal anti-ATM antiserum)
T1 sequence (Q13315 whole entry): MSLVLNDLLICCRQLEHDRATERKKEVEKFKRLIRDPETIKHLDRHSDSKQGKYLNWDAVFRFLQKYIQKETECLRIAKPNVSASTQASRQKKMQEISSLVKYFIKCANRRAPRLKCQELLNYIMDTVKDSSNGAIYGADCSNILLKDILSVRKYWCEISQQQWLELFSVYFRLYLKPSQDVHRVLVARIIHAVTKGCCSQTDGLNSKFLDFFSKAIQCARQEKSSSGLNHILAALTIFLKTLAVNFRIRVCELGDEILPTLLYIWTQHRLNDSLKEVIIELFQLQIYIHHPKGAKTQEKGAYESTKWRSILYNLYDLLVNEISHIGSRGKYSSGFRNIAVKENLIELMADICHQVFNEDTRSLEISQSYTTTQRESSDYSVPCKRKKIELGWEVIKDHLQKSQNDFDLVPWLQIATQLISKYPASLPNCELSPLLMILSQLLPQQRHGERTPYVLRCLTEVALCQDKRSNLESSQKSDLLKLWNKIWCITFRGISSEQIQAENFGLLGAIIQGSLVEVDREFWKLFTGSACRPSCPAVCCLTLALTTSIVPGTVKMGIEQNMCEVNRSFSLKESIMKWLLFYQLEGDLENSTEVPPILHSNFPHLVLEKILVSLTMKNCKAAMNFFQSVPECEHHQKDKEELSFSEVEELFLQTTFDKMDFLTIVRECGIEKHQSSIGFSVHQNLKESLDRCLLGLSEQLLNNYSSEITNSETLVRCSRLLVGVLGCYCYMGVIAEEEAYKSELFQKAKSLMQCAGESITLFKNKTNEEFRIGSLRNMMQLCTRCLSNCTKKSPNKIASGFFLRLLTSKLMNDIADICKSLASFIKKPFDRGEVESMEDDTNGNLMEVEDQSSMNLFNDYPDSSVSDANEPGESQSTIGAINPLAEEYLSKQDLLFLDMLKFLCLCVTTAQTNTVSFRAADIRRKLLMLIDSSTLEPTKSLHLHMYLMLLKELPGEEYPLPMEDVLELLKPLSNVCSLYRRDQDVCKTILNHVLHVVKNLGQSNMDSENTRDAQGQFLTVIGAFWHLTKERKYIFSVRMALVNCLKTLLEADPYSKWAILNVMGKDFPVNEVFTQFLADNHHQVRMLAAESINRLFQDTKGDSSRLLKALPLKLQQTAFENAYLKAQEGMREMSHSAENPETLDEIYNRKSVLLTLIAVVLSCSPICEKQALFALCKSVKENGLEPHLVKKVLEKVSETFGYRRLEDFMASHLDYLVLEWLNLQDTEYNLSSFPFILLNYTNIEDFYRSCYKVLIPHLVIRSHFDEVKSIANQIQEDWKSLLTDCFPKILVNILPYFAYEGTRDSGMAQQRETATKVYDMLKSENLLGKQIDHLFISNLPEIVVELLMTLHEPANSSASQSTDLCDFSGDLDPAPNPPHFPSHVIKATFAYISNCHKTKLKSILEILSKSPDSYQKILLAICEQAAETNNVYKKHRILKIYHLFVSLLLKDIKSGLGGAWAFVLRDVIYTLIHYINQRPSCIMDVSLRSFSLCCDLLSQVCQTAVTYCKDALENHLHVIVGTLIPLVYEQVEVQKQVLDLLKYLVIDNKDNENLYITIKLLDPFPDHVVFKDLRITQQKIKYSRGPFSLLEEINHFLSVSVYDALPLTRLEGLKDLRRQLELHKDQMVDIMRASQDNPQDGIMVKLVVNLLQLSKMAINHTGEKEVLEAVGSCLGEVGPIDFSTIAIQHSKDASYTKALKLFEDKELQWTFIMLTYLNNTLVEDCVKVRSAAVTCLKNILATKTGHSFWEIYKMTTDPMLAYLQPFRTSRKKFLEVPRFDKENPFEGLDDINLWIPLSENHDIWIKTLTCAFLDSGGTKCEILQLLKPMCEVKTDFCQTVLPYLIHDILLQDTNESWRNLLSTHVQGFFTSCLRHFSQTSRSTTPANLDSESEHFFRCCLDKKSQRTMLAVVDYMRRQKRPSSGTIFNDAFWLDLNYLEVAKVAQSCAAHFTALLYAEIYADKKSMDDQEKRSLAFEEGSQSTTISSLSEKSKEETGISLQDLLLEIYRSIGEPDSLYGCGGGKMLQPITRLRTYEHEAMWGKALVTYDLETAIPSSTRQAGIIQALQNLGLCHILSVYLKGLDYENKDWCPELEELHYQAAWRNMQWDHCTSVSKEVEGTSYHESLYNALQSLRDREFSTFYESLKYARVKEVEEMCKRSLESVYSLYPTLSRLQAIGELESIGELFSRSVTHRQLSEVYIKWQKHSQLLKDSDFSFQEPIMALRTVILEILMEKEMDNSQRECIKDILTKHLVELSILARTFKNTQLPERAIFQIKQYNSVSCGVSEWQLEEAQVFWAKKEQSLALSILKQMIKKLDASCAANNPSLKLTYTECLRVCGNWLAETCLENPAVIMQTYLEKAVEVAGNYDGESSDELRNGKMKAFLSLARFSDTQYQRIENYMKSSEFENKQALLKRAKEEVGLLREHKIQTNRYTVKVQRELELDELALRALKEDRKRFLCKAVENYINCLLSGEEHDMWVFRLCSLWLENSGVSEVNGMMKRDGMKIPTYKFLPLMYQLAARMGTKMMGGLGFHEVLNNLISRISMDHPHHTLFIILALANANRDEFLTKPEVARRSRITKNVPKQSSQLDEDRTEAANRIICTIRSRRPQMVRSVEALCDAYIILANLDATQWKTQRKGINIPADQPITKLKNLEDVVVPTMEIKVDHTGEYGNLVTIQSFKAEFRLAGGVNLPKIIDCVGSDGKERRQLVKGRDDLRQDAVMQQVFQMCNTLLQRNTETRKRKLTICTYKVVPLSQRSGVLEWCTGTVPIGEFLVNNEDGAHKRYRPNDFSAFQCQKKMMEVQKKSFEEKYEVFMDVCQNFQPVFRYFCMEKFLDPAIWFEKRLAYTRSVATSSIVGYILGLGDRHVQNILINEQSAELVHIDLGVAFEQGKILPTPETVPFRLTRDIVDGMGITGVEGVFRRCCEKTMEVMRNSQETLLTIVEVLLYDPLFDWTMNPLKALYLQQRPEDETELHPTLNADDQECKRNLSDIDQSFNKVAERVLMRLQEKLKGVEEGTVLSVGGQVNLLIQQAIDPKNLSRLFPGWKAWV
Kind of experiment: In vitro ATM inhibition assay (phosphorylation of GSTp53N66 on serine 15, chemiluminescent detection). Also: tested normally from 100 µM down to 0.1 nM. It counts as biochemical. The note with it: read-out: IC50 values (the concentration at which 50% of the enzyme activity is inhibited), ATM inhibition. As to the method:
In order to assess the inhibitory action of the compounds against ATM in vitro, the following assay was used to determine IC50 values. ATM protein was immunoprecipitated from HeLa cell nuclear extract using rabbit polyclonal anti-sera raised to the C-terminal ˜500 amino-acid residues of the human ATM protein. […] 10 μl of immunoprecipitated ATM in Buffer C (50 mM Hepes, pH 7.4, 6 mM MgCl2, 150 mM NaCl, 0.1 mM sodium orthovanadate, 4 mM MnCl2, 0.1 mM dithiothreitol, 10% glycerol) was added to 32.5 μl of buffer C containing 1 μg of the ATM substrate GSTp53N66 in a V-bottomed 96 well polypropylene plate. The GSTp53N66 substrate is the amino terminal 66 amino acid residues of human wild type p53 fused to glutathione S-transferase. […] Varying concentrations of inhibitor were then added. […] After 10 minutes of incubation at 37° C., the reactions were initiated by the addition of 5 μl of 500 μM Na-ATP. After 1 hour with shaking at 37° C., 150 μl of phosphate buffered saline (PBS) was added to the reaction and the plate centrifuged at 1500 rpm for 10 minutes. 5 μl of the reaction was then transferred to a 96 well opaque white plate containing 45 μl of PBS to allow the GSTp53N66 substrate to bind to the plate wells. The plate was covered and incubated at room temperature for 1 hour with shaking before discarding the contents. The plate wells were washed twice by the addition of PBS prior to the addition of 3% (w/v) bovine serum albumin (BSA) in PBS. The plate was incubated at room temperature for 1 hour with shaking before discarding the contents and washing twice with PBS. To the wells, 50 μl of a 1:10,000 dilution of primary phosphoserine-15 antibody (Cell Signaling Technology, #9284L) in 3% BSA/PBS was added to detect the phosphorylation event on the serine 15 residue of p53 elicited by the ATM kinase. […] The wells were then washed four times with PBS before the addition of chemiluminescence reagent (NEN Renaissance, NEL105). The plate was then shaken briefly, covered with a transparent plate seal and transferred to a TopCount NXT for chemiluminescent counting. Counts per second, following a one second counting time, were recorded for each reaction.
The enzyme activity for each compound is then calculated using the following equation:
[formula] Results In vitro ATM assays
Compounds were assayed for ATM inhibition activity using the method described above. […] These are determined over a range of different concentrations, normally from 100 μM down to 0.1 nM. Such IC50 values are used as comparative values to identify increased compound potencies.
In the case of `O=C(COc1ccc2c(c1)Sc1cccc(-c3cc(=O)cc(N4CCOCC4)o3)c1S2)NC(CO)CO` [Compound 411], the IC50 is under 200 nM.
The value for `O=c1cc(-c2cccc3c2Sc2ccccc2N3CCCN2CCN(CCO)CC2)oc(N2CCOCC2)c1` [Compound 300] was under 200 nM; that for `O=C(CCN1CCCC1)Nc1ccc2c(c1)Sc1cccc(-c3cc(=O)cc(N4CCOCC4)o3)c1S2` [Compound 98] was under 200 nM.
Turning to `COc1ccc(CNCC(=O)Nc2ccc3c(c2)Sc2cccc(-c4cc(=O)cc(N5CCOCC5)o4)c2S3)cc1` [Compound 64], the IC50 is under 200 nM.
For the molecule `CC(C)N1CCN(CCC(=O)Nc2ccc3c(c2)Sc2cccc(-c4cc(=O)cc(N5CCOCC5)o4)c2S3)CC1` [Compound 118], the IC50 was under 200 nM.
For `O=C(CNCCO)Nc1ccc2c(c1)Sc1cccc(-c3cc(=O)cc(N4CCOCC4)o3)c1S2` [Compound 57], the IC50 is under 200 nM.
For the molecule `O=C(CN1CCCC1)Nc1ccc2c(c1)Sc1cccc(-c3cc(=O)cc(N4CCOCC4)o3)c1S2` [Compound 59], the IC50 is under 200 nM.
The same measure for `CC(C)N1CCN(CC(=O)Nc2ccc3c(c2)Cc2cccc(-c4cc(=O)cc(N5CCOCC5)o4)c2S3)CC1` [Compound 341]: under 200 nM; for `COCCCNCCCN1c2ccccc2Sc2c(-c3cc(=O)cc(N4CCOCC4)o3)cccc21` [Compound 285]: under 200 nM; for `O=c1cc(-c2cccc3c2Sc2ccccc2N3CCCNC(CO)(CO)CO)oc(N2CCOCC2)c1` [Compound 322]: under 200 nM.
Regarding `CCN(CCC(=O)Nc1ccc2c(c1)Sc1cccc(-c3cc(=O)cc(N4CCOCC4)o3)c1S2)Cc1ccccc1` [Compound 111], the IC50 is under 200 nM.
For `O=C(Nc1ccc2c(c1)Sc1cccc(-c3cc(=O)cc(N4CCOCC4)o3)c1S2)c1ccc2c(c1)OCO2` [Compound 25], the IC50 was under 200 nM.
The same measure for `Cc1noc(C)c1C(=O)Nc1ccc2c(c1)Sc1cccc(-c3cc(=O)cc(N4CCOCC4)o3)c1S2` [Compound 35]: under 200 nM; for `O=C(CN(CCO)CCO)Nc1ccc2c(c1)Sc1cccc(-c3cc(=O)cc(N4CCOCC4)o3)c1S2` [Compound 55]: under 200 nM; for `O=c1cc(-c2cccc3c2Sc2ccccc2N3CCCNCC2CCCCC2O)oc(N2CCOCC2)c1` (centres unmarked) [Compound 328]: under 200 nM.
The same measure for `O=C(CCNCCCN1CCOCC1)Nc1ccc2c(c1)Sc1cccc(-c3cc(=O)cc(N4CCOCC4)o3)c1S2` [Compound 102]: under 200 nM; for `C[C@@H]1CN(CCC(=O)Nc2ccc3c(c2)Sc2cccc(-c4cc(=O)cc(N5CCOCC5)o4)c2S3)C[C@H](C)O1` [Compound 109]: under 200 nM; for `O=C(CNCC1CCCO1)Nc1ccc2c(c1)Sc1cccc(-c3cc(=O)cc(N4CCOCC4)o3)c1S2` (centres unmarked) [Compound 68]: under 200 nM.
The value for `O=C(Nc1ccc2c(c1)Sc1cccc(-c3cc(=O)cc(N4CCOCC4)o3)c1S2)C1CC1` [Compound 24] was under 200 nM; that for `CC(=O)N1CCC(C(=O)Nc2ccc3c(c2)Sc2cccc(-c4cc(=O)cc(N5CCOCC5)o4)c2S3)CC1` [Compound 38] was under 200 nM.
In the case of `CCCCNCCCN1c2ccccc2Sc2c(-c3cc(=O)cc(N4CCOCC4)o3)cccc21` [Compound 245], the IC50 was under 200 nM.
`CC(C)NC(=O)CN1CCN(CC(=O)Nc2ccc3c(c2)Sc2cccc(-c4cc(=O)cc(N5CCOCC5)o4)c2S3)CC1` [Compound 85]: the IC50 was under 200 nM.
As to `CN(C)CCN1CCN(CCC(=O)Nc2ccc3c(c2)Cc2cccc(-c4cc(=O)cc(N5CCOCC5)o4)c2S3)CC1` [Compound 356], the IC50 was under 200 nM.
The value for `O=c1cc(-c2cccc3c2Sc2ccc(S(=O)(=O)N4CCCC(CO)C4)cc2C3)oc(N2CCOCC2)c1` (centres unmarked) [Compound 471] was under 200 nM.
The same measure for `O=C(CCN1CCCCC1)Nc1ccc2c(c1)Sc1cccc(-c3cc(=O)cc(N4CCOCC4)o3)c1S2` [Compound 92]: under 200 nM; for `O=C(CCNCCN1CCCCC1)Nc1ccc2c(c1)Sc1cccc(-c3cc(=O)cc(N4CCOCC4)o3)c1S2` [Compound 127]: under 200 nM; for `CC(C)CNCCCN1c2ccccc2Sc2c(-c3cc(=O)cc(N4CCOCC4)o3)cccc21` [Compound 242]: under 200 nM.
For `CCN1CCCC1CNCCC(=O)Nc1ccc2c(c1)Sc1cccc(-c3cc(=O)cc(N4CCOCC4)o3)c1S2` (centres unmarked) [Compound 126], the IC50 was under 200 nM.
The value for `CCOC(=O)C1CCN(CCCN2c3ccccc3Sc3c(-c4cc(=O)cc(N5CCOCC5)o4)cccc32)CC1` [Compound 312] was under 200 nM.
Consider `O=C(COc1ccc2c(c1)Cc1cccc(-c3cc(=O)cc(N4CCOCC4)o3)c1S2)NCC(F)(F)F` [Compound 496], for which the IC50 is under 200 nM.
The same measure for `O=c1cc(-c2ccc(OCCCNC3CCC3)c3c2Sc2ccccc2S3)oc(N2CCOCC2)c1` [Compound 182]: under 200 nM; for `CC(C)(C)OC(=O)N1CCN(C(=O)c2ccc3c(c2)Sc2cccc(-c4cc(=O)cc(N5CCOCC5)o4)c2S3)CC1` [Compound 16]: under 200 nM; for `CN(C)CCCNCCCN1c2ccccc2Sc2c(-c3cc(=O)cc(N4CCOCC4)o3)cccc21` [Compound 284]: under 200 nM.
The value for `O=c1cc(-c2cccc3c2Sc2ccccc2N3CCCNCCN2CCOCC2)oc(N2CCOCC2)c1` [Compound 272] was under 200 nM; that for `COc1ccccc1C(=O)Nc1ccc2c(c1)Sc1cccc(-c3cc(=O)cc(N4CCOCC4)o3)c1S2` [Compound 31] was under 200 nM.
The value for `N#Cc1ccc(C(=O)Nc2ccc3c(c2)Sc2cccc(-c4cc(=O)cc(N5CCOCC5)o4)c2S3)cc1` [Compound 27] was under 200 nM.
Regarding `CCCCNCCOc1ccc2c(c1)Sc1cccc(-c3cc(=O)cc(N4CCOCC4)o3)c1S2` [Compound 382], the IC50 was under 200 nM.
Turning to `O=C(COc1ccc2c(c1)Cc1cccc(-c3cc(=O)cc(N4CCOCC4)o3)c1S2)NC(CO)(CO)CO` [Compound 505], the IC50 was under 200 nM.
Consider `O=C(Nc1ccc2c(c1)Sc1cccc(-c3cc(=O)cc(N4CCOCC4)o3)c1S2)c1ccncc1` [Compound 30], for which the IC50 is under 200 nM.
The value for `O=C(COc1ccc2c(c1)Sc1cccc(-c3cc(=O)cc(N4CCOCC4)o3)c1S2)N[C@@H](CO)C(=O)OCc1ccccc1` [Compound 424] was under 200 nM; that for `O=C(CN1CCOCC1)Nc1ccc2c(c1)Sc1cccc(-c3cc(=O)cc(N4CCOCC4)o3)c1S2` [Compound 51] was under 200 nM; that for `CN1CCN(S(=O)(=O)c2ccc3c(c2)Cc2cccc(-c4cc(=O)cc(N5CCOCC5)o4)c2S3)CC1` [Compound 480] was under 200 nM.
The value for `O=c1cc(-c2cccc3c2Sc2ccccc2N3CCCNCC2CCCO2)oc(N2CCOCC2)c1` (centres unmarked) [Compound 240] was under 200 nM; that for `O=C(CN1CCN(c2ccc(F)cc2)CC1)Nc1ccc2c(c1)Cc1cccc(-c3cc(=O)cc(N4CCOCC4)o3)c1S2` [Compound 344] was under 200 nM.
The same measure for `COCCN1CCN(C(=O)COc2ccc3c(c2)Sc2cccc(-c4cc(=O)cc(N5CCOCC5)o4)c2S3)CC1` [Compound 435]: under 200 nM; for `O=C(COc1ccc2c(c1)Sc1cccc(-c3cc(=O)cc(N4CCOCC4)o3)c1S2)NC(CO)(CO)CO` [Compound 410]: under 200 nM; for `CCOCCCNCCCN1c2ccccc2Sc2c(-c3cc(=O)cc(N4CCOCC4)o3)cccc21` [Compound 286]: under 200 nM.
For the molecule `O=C(CN1CCN(CCOCCO)CC1)Nc1ccc2c(c1)Cc1cccc(-c3cc(=O)cc(N4CCOCC4)o3)c1S2` [Compound 340], the IC50 is under 200 nM.
The value for `CCN1CCN(CC(=O)Nc2ccc3c(c2)Sc2cccc(-c4cc(=O)cc(N5CCOCC5)o4)c2S3)CC1` [Compound 81] was under 200 nM.
The same measure for `O=c1cc(-c2cccc3c2Sc2ccc(S(=O)(=O)NCCc4cnc[nH]4)cc2C3)oc(N2CCOCC2)c1` [Compound 465]: under 200 nM.
The value for `CCC(C)(C)NS(=O)(=O)c1ccc2c(c1)Cc1cccc(-c3cc(=O)cc(N4CCOCC4)o3)c1S2` [Compound 488] was under 200 nM; that for `CN(C)Cc1ccc(CSCCNCCOc2ccc(-c3cc(=O)cc(N4CCOCC4)o3)c3c2Sc2ccccc2S3)o1` [Compound 170] was under 200 nM; that for `CN(CCOc1ccc2c(c1)Sc1cccc(-c3cc(=O)cc(N4CCOCC4)o3)c1S2)CCc1ccccn1` [Compound 398] was under 200 nM.
